Among the data in US20250179055A1, “Substituted 2-(pyrrolidine-3-yl)acetic acid derivative, preparation method and use thereof” (INNOVSTONE THERAPEUTICS LIMITED, priority 2023, published 2025) are IC50 values, retold here.

Lp(a) assembly in HepG2 cells overexpressing ApoA protein, sequence (P08519 20-2040): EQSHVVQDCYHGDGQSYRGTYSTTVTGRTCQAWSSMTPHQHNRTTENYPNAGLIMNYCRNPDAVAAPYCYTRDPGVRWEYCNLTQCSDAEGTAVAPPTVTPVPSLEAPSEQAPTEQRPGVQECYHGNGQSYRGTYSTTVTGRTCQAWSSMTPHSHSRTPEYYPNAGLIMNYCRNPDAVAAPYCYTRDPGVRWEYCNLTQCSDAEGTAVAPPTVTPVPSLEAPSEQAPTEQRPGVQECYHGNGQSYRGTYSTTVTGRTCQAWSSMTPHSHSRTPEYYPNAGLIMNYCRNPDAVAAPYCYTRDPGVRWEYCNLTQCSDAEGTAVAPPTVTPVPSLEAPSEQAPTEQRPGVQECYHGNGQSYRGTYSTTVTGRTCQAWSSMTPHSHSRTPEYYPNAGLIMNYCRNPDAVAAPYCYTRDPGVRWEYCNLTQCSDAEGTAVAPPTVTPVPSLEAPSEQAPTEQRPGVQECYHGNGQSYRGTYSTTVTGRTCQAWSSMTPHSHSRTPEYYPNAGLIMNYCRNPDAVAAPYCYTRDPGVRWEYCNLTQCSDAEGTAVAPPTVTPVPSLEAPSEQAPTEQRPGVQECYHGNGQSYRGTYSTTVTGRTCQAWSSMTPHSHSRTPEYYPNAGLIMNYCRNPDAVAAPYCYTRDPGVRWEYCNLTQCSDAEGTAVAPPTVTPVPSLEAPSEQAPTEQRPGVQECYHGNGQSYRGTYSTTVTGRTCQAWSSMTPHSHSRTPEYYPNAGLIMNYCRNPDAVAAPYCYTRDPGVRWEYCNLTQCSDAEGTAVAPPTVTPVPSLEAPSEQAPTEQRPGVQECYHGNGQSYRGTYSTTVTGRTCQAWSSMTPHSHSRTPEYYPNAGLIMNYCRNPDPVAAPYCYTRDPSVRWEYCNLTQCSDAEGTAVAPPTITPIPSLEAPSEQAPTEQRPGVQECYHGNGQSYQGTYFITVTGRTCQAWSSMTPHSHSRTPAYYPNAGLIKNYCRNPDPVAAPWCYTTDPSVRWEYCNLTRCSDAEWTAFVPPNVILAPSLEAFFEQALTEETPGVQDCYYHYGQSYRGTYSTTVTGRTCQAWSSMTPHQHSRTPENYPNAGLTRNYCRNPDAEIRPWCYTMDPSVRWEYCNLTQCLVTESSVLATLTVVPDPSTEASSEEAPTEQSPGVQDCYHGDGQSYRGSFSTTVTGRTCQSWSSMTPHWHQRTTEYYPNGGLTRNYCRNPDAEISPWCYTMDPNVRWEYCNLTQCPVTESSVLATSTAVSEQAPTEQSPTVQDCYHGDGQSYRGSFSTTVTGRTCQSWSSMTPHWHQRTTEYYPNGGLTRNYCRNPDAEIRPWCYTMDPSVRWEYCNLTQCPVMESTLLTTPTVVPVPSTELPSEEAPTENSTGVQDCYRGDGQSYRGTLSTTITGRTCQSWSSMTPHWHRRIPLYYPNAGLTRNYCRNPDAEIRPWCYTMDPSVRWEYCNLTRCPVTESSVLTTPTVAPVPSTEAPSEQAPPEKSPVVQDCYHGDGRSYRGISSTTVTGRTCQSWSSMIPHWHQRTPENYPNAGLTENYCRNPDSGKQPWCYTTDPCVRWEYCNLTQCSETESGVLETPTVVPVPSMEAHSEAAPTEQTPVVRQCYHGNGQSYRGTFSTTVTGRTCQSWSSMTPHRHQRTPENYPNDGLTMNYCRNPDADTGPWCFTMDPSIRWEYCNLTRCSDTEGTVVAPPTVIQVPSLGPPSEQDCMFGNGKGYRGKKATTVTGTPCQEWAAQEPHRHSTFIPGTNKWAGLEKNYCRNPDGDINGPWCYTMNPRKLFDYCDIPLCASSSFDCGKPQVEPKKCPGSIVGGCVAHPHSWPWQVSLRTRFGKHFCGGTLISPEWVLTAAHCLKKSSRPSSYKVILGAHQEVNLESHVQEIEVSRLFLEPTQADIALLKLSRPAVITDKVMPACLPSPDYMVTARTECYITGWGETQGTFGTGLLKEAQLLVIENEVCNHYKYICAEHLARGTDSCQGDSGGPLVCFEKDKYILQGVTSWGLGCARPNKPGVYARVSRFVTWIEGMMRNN

One test addresses Lp(a) assembly in HepG2 cells overexpressing ApoA protein (Homo sapiens (Human), UniProt P08519). Briefly: ELISA assay on screening Lp(a) assembly inhibition. The format is cell-based.
Conditions: not given
As to the method: Test Example 1 and Methods of ELISA Assay on Screening Lp(a) Assembly Inhibition
• 1) Preheated the culture media, DPBS, and pancreatin in a 37° C. water bath in advance. • 2) Digested cells with pancreatin, transferred the cell suspension to a 15 mL centrifuge tube, and centrifuged at 1000 rpm for 5 min. • 3) Resuspended the cells with culture media and transferred the cell suspension to a new T75 cell culture flask. • 4) Cultured at 37° C. in a 5% CO2 incubator.
• 1) Seeded HepG2 cells overexpressing of ApoA protein into a 96-well plate at 100 μL per well and incubated overnight for attachment. • 2) Replaced with fresh culture media the next day, then added diluted compounds, and cultured the cell plate in a 5% CO2, 37° C. incubator for 24 h.
• 1) Added 10 μL of 1.5 M EACA to each well. • 2) Centrifuged at 1000 rpm for 1 min, and transferred 100 μL of cell culture supernatant to a pre-coated ELISA plate.
• 1) Added 100 μL of capture antibody to each well of a pre-coated ELISA plate and incubated overnight at 25° C. • 2) Added 300 μL of washing solution to each well and washed 5 times for 1 min each time. • 3) Added 100 μL of blocking solution to each well and incubated at 25° C. for 2 h. • 4) Added 300 μL of washing solution to each well and washed 5 times for 1 min each time. • 5) Added 100 μL of sample to each well and incubated at 25° C. for 1 h. • 6) Added 300 μL of washing solution to each well and washed 5 times for 1 min each time. • 7) Added 100 μL of detection antibody to each well and incubated at 25° C. for 1 h. • 8) Added 300 μL of washing solution to each well and washed 5 times for 1 min each time. • 9) Added 100 μL substrate solution (Color Reagent A: Color Reagent B, 1:1) to each well and incubated for 20 min at 25° C. in the dark. • 10) Added […] of stop solution to each well, gently blowed and sucked several times with the pipette tip, and read within 5 min.
[formula] • X: cpd concentration • Y: inhibition % • Top and Bottom: Plateaus in same units as Y • log IC50: same log units as X • HillSlope: Slope factor or Hill slope
(In general: An ELISA detects its analyte on a solid surface through an enzyme-linked reagent.)
Compound `O=C(O)[C@@H](Cc1ncc(CN(Cc2cnc(C[C@H](C(=O)O)[C@H]3CCNC3)s2)Cc2cnc(C[C@H](C(=O)O)[C@H]3CCNC3)s2)s1)[C@H]1CCNC1` [Compound 121, (2S,2′S,2″S)-3,3′,3″-((nitrilotris(methylene))tris(thiazole-5,2-diyl))tris(2-((R)-pyrrolidin-3-yl)propanoic acid)] registered an IC50 of 1.53 nM.

The test is the same for the next values; noted with them: HepG2 cells overexpressing ApoA protein, 24 h, ELISA of supernatant.
For the compound `O=C(O)[C@@H](Cc1cccc(CCN(Cc2cccc(C[C@H](C(=O)O)[C@H]3CCNC3)c2)C(=O)c2cccc(C[C@H](C(=O)O)[C@H]3CCNC3)c2)c1)[C@H]1CCNC1` [Compound 99, (S)-3-(3-(2-(3-((S)-2-carboxy-2-((R)-pyrrolidin-3-yl)ethyl)-N-(3-((S)-2-carboxy-2-((R)-pyrrolidin-3-yl)ethyl)benzyl)benzamido)ethyl)phenyl)-2-((R)-pyrrolidin-3-yl)propanoic acid], inhibition was half-maximal at 0.96 nM (IC50).
Same read-out and setting: for `O=C(O)[C@@H](Cc1cc2c(CN(Cc3cccc4sc(C[C@H](C(=O)O)[C@H]5CCNC5)cc34)Cc3cccc4sc(C[C@H](C(=O)O)[C@H]5CCNC5)cc34)cccc2s1)[C@H]1CCNC1` [Compound 101, (2S,2′S,2″S)-3,3′,3″-((nitrilotris(methylene))tris(benzo[b]thiophene-4,2-diyl))tris(2-((R)-pyrrolidin-3-yl)propanoic acid)] the value was 2.71 nM; for `O=C(O)[C@@H](Cc1cc(CN(Cc2cc(C[C@H](C(=O)O)[C@H]3CCNC3)cc3ccoc23)Cc2cc(C[C@H](C(=O)O)[C@H]3CCNC3)cc3ccoc23)c2occc2c1)[C@H]1CCNC1` [Compound 102, (2S,2′S,2″S)-3,3′,3″-((nitrilotris(methylene))tris(benzofuran-7,5-diyl))tris(2-((R)-pyrrolidin-3-yl)propanoic acid)], 0.74 nM; for `O=C(O)[C@@H](Cc1cc2ccc(CN(Cc3ccc4cc(C[C@H](C(=O)O)[C@H]5CCNC5)sc4c3)Cc3ccc4cc(C[C@H](C(=O)O)[C@H]5CCNC5)sc4c3)cc2s1)[C@H]1CCNC1` [Compound 103, (2S,2′S,2″S)-3,3′,3″-((nitrilotris(methylene))tris(benzo[b]thiophene-6,2-diyl))tris(2-((R)-pyrrolidin-3-yl)propanoic acid)], 2.11 nM.
On the same count and under the same terms, as for `O=C(O)[C@@H](Cc1cc2cc(CN(Cc3ccc4sc(C[C@H](C(=O)O)[C@H]5CCNC5)cc4c3)Cc3ccc4sc(C[C@H](C(=O)O)[C@H]5CCNC5)cc4c3)ccc2s1)[C@H]1CCNC1` [Compound 104, (2S,2′S,2″S)-3,3′,3″-((nitrilotris(methylene))tris(benzo[b]thiophene-5,2-diyl))tris(2-((R)-pyrrolidin-3-yl)propanoic acid)], the figure is 1.04 nM; as for `O=C(O)[C@@H](Cc1cccc(CCN(CCOc2cccc(C[C@H](C(=O)O)[C@H]3CCNC3)c2)C(=O)c2cccc(C[C@H](C(=O)O)[C@H]3CCNC3)c2)c1)[C@H]1CCNC1` [Compound 106, (S)-3-(3-(2-(3-((S)-2-carboxy-2-((R)-pyrrolidin-3-yl)ethyl)-N-(2-(3-((S)-2-carboxy-2-((R)-pyrrolidin-3-yl)ethyl)phenoxy)ethyl)benzamido)ethyl)phenyl)-2-((R)-pyrrolidin-3-yl)propanoic acid], 1.84 nM; as for `O=C(O)[C@@H](Cc1cccc(CCN(CCc2cccc(C[C@H](C(=O)O)[C@H]3CCNC3)c2)C(=O)Cc2cccc(C[C@H](C(=O)O)[C@H]3CCNC3)c2)c1)[C@H]1CCNC1` [Compound 107, (2S,2′S)-3,3′-((((2-(3-((S)-2-carboxy-2-((R)-pyrrolidin-3-yl)ethyl)phenyl)acetyl)azanediyl)bis(ethane-2,1-diyl))bis(3,1-phenylene))bis(2-((R)-pyrrolidin-3-yl)propanoic acid)], 1.66 nM.
With `O=C(O)[C@@H](Cc1cccc(CCN(CCc2cccc(C[C@H](C(=O)O)[C@H]3CCNC3)c2)C(=O)c2cccc(C[C@H](C(=O)O)[C@H]3CCNC3)c2)c1)[C@H]1CCNC1` [Compound 108, (2S,2′S)-3,3′-((((3-((S)-2-carboxy-2-((R)-pyrrolidin-3-yl)ethyl)benzoyl)azanediyl)bis(ethane-2,1-diyl))bis(3,1-phenylene))bis(2-((R)-pyrrolidin-3-yl)propanoic acid)], the midpoint of inhibition, the IC50, lay at 1.16 nM.
Regarding `O=C(CN(CCOc1cccc(C[C@H](C(=O)O)[C@H]2CCNC2)c1)CCOc1cccc(C[C@H](C(=O)O)[C@H]2CCNC2)c1)c1cccc(C[C@H](C(=O)O)[C@H]2CCNC2)c1` [Compound 112, (2S,2′S)-3,3′-(((((2-(3-((S)-2-carboxy-2-((R)-pyrrolidin-3-yl)ethyl)phenyl)-2-oxoethyl)azanediyl)bis(ethane-2,1-diyl))bis(oxy))bis(3,1-phenylene))bis(2-((R)-pyrrolidin-3-yl)propanoic acid)], the IC50 stood at 3.4 nM.
Regarding `O=C(O)[C@@H](Cc1cccc(CN2CCN(Cc3cccc(C[C@H](C(=O)O)[C@H]4CCNC4)c3)CC2)c1)[C@H]1CCNC1` [Compound 117, (2S,2′S)-3,3′-((piperazine-1,4-diylbis(methylene))bis(3,1-phenylene))bis(2-((R)-pyrrolidin-3-yl)propanoic acid)], the midpoint of inhibition, the IC50, lay at 2.58 nM.
Still for that read-out and setting: for `O=C(O)[C@@H](Cc1cccc(COc2cc(OCc3cccc(C[C@H](C(=O)O)[C@H]4CCNC4)c3)cc(OCc3cccc(C[C@H](C(=O)O)[C@H]4CCNC4)c3)c2)c1)[C@H]1CCNC1` [Compound 122, (2S,2′S,2″S)-3,3′,3″-(((benzene-1,3,5-triyltris(oxy))tris(methylene))tris(benzene-3,1-diyl))tris(2-((R)-pyrrolidin-3-yl)propanoic acid)] the value was 1.87 nM; for `O=C(O)[C@@H](Cc1cccc(CN(Cc2cccc(C[C@H](C(=O)O)[C@H]3CCNC3)c2)Cc2ccc3oc(C[C@H](C(=O)O)[C@H]4CCNC4)cc3c2)c1)[C@H]1CCNC1` [Compound 126, (2S,2′S)-3,3′-(((((2-((S)-2-carboxy-2-((R)-pyrrolidin-3-yl)ethyl)benzofuran-5-yl)methyl)azanediyl)bis(methylene))bis(3,1-phenylene))bis(2-((R)-pyrrolidin-3-yl)propanoic acid)], 1.26 nM.
The same measure, in the same setting: for `O=C(O)[C@@H](Cc1csc2ccc(CN(Cc3ccc4scc(C[C@H](C(=O)O)[C@H]5CCNC5)c4c3)Cc3ccc4scc(C[C@H](C(=O)O)[C@H]5CCNC5)c4c3)cc12)[C@H]1CCNC1` [Compound 128, (2S,2′S,2″S)-3,3′,3″-((nitrilotris(methylene))tris(benzo[b]thiophene-5,3-diyl))tris(2-((R)-pyrrolidin-3-yl)propanoic acid)] the value was 1.34 nM; for `O=C(CN(Cc1cccc(C[C@H](C(=O)O)[C@H]2CCNC2)c1)Cc1cccc(C[C@H](C(=O)O)[C@H]2CCNC2)c1)c1cccc(C[C@H](C(=O)O)[C@H]2CCNC2)c1` [Compound 130, (2S,2′S)-3,3′-((((2-(3-((S)-2-carboxy-2-((R)-pyrrolidin-3-yl)ethyl)phenyl)-2-oxoethyl)azanediyl)bis(methylene))bis(3,1-phenylene))bis(2-((R)-pyrrolidin-3-yl)propanoic acid)], 1.45 nM.
Still for that read-out and setting: for `O=C(O)[C@@H](Cc1cccc(COCC2CN(Cc3cccc(C[C@H](C(=O)O)[C@H]4CCNC4)c3)CCN2Cc2cccc(C[C@H](C(=O)O)[C@H]3CCNC3)c2)c1)[C@H]1CCNC1` (stereo partly drawn) [Compound 132, (2S,2′S)-3,3′-(((2-(((3-((S)-2-carboxy-2-((R)-pyrrolidin-3-yl)ethyl)benzyl)oxy)methyl)piperazine-1,4-diyl)bis(methylene))bis(3,1-phenylene))bis(2-((R)-pyrrolidin-3-yl)propanoic acid)] the value was 0.88 nM; for `Cn1c(C[C@H](C(=O)O)[C@H]2CCNC2)nc2ccc(CN(Cc3ccc4nc(C[C@H](C(=O)O)[C@H]5CCNC5)n(C)c4c3)Cc3ccc4nc(C[C@H](C(=O)O)[C@H]5CCNC5)n(C)c4c3)cc21` [Compound 133, (2S,2′S,2″S)-3,3′,3″-((nitrilotris(methylene))tris(1-methyl-1H-benzo[d]imidazole-6,2-diyl))tris(2-((R)-pyrrolidin-3-yl)propanoic acid)], 0.94 nM; for `O=C(O)[C@@H](Cc1cccc(CN(CCOc2cccc(C[C@H](C(=O)O)[C@H]3CCNC3)c2)C(=O)CNc2cccc(C[C@H](C(=O)O)[C@H]3CCNC3)c2)c1)[C@H]1CCNC1` [Compound 134, (S)-3-(3-((2-((3-((S)-2-carboxy-2-((R)-pyrrolidin-3-yl)ethyl)benzyl)(2-(3-((S)-2-carboxy-2-((R)-pyrrolidin-3-yl)ethyl)phenoxy)ethyl)amino)-2-oxoethyl)amino)phenyl)-2-((R)-pyrrolidin-3-yl)propanoic acid], 0.85 nM.

What is called IC50 is the concentration that inhibits the measured activity by half. Low readings indicate higher potency, high ones lower potency.
